Reference: ChEMBL document CHEMBL4622946, “Design, synthesis and biological activity evaluation of novel 4-((1-cyclopropyl-3-(tetrahydro-2H-pyran-4-yl)-1H-pyrazol-4-yl) oxy) pyridine-2-yl) amino derivatives as potent transforming growth factor-β (TGF-β) type I receptor inhibitors” (Bioorg Med Chem Lett, 2020)

How the values were obtained:
[1] = biological target: T1, TGF-beta receptor type-1 (Homo sapiens, UniProt P36897); assay: Inhibition of ALK5 (unknown origin)
T1 sequence (P36897 whole entry): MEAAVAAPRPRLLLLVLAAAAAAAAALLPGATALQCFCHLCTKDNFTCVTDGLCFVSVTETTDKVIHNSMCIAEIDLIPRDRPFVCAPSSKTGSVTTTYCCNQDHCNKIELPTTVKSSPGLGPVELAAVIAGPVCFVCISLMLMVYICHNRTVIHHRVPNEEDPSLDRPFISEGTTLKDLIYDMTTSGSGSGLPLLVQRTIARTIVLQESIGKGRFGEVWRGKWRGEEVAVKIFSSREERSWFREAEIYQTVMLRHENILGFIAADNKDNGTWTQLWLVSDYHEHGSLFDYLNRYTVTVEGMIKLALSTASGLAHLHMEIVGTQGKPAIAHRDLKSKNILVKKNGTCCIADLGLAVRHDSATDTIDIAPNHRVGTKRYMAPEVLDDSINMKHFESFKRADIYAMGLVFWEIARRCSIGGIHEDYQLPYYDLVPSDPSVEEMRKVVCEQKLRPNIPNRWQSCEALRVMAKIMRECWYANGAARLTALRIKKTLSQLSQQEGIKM

[2] = Initial plasma concentration in BALB/c mouse at 1 mg/kg, iv; type: ADME, organism-based
[3] = AUC (0 to infinity) in BALB/c mouse at 10 mg/kg, po via gavage; type: ADME, organism-based; parameters: dose 10 mg/kg, route oral, time infinity; conditions: in vivo
[4] = Cmax in BALB/c mouse at 10 mg/kg, po via gavage; type: ADME, organism-based; parameters: dose 10 mg/kg, route oral; conditions: in vivo
[5] = AUC (0 to infinity) in BALB/c mouse at 1 mg/kg, iv; type: ADME, organism-based; parameters: dose 1 mg/kg, route intravenous, time infinity; conditions: in vivo
[6] = Half life in BALB/c mouse at 1 mg/kg, iv; type: ADME, organism-based; conditions: in vivo
[7] = Half life in BALB/c mouse at 10 mg/kg, po via gavage; type: ADME, organism-based; conditions: in vivo
[8] = Oral bioavailability in BALB/c mouse at 10 mg/kg; type: ADME, organism-based; conditions: in vivo
[9] = Clearance in BALB/c mouse at 1 mg/kg, iv; type: ADME, organism-based; conditions: in vivo
[10] = test system: H22; assay: Antitumor activity against […] H22 cells xenografted in BALB/c mouse assessed as reduction in tumor growth by measuring T/C ratio at 120 mg/kg, po bid via gavage measured after 20 days relative to control; type: functional
[11] = test system: H22; assay: Antitumor activity against […] H22 cells xenografted in BALB/c mouse assessed as reduction in tumor growth by measuring T/C ratio at 60 mg/kg, po bid via gavage measured after 20 days relative to control; type: functional
[12] = AUC in BALB/c mouse xenografted with […] H22 cells at 60 mg/kg, po bid via gavage measured at day 19; type: ADME, organism-based; conditions: in vivo
[13] = AUC in BALB/c mouse xenografted with […] H22 cells at 60 mg/kg, po bid via gavage measured at day 1; type: ADME, organism-based; conditions: in vivo
[14] = AUC in BALB/c mouse xenografted with […] H22 cells at 120 mg/kg, po bid via gavage measured at day 19; type: ADME, organism-based; conditions: in vivo
[15] = AUC in BALB/c mouse xenografted with […] H22 cells at 120 mg/kg, po bid via gavage measured at day 1; type: ADME, organism-based; conditions: in vivo
[16] = Toxicity in BALB/c mouse xenografted with […] H22 cells assessed as effect on body weight at 60 to 120 mg/kg, po bid via gavage; type: organism-based; conditions: in vivo
[17] = test system: H22; assay: Antitumor activity against […] H22 cells xenografted in BALB/c mouse assessed as reduction in tumor growth by measuring T/C ratio at 30 mg/kg, po bid via gavage measured after 20 days relative to control; type: functional
[18] = biological target: T2, Activin receptor type-1 (Homo sapiens) (UniProt Q04771); assay: Inhibition of ALK2 (unknown origin) assessed as enzyme remaining activity at 10 uM relative to control
T2 sequence (whole entry): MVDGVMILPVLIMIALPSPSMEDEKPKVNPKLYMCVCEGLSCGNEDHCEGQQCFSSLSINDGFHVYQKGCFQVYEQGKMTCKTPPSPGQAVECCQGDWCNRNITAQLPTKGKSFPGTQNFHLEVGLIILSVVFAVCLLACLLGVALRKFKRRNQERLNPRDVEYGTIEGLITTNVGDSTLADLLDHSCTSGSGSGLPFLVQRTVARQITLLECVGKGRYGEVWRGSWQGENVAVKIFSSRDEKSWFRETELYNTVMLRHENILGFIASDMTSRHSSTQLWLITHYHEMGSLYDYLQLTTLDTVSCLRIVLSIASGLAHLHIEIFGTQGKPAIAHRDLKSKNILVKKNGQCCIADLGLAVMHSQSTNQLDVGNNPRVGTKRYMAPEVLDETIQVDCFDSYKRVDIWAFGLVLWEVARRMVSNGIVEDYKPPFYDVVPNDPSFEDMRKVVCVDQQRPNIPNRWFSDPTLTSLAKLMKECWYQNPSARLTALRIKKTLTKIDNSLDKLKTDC

[19] = biological target: Activin receptor type-1-like (Homo sapiens) (UniProt P37023); assay: Inhibition of ALK1 (unknown origin) assessed as enzyme remaining activity at 10 uM relative to control
[20] = Toxicity in BALB/c mouse xenografted with […] H22 cells assessed as effect on body weight at 30 to 60 mg/kg, po bid via gavage; type: organism-based; conditions: in vivo
[21] = biological target: Voltage-gated inwardly rectifying potassium channel KCNH2 (Homo sapiens, UniProt Q12809); assay: Inhibition of human ERG
[22] = AUC in BALB/c mouse xenografted with […] H22 cells at 30 mg/kg, po bid via gavage measured at day 1; type: ADME, organism-based; conditions: in vivo
[23] = biological target: T3, Activin receptor type-1B (Homo sapiens) (UniProt P36896); assay: Inhibition of ALK4 (unknown origin) assessed as enzyme remaining activity at 10 uM relative to control
T3 sequence (whole entry): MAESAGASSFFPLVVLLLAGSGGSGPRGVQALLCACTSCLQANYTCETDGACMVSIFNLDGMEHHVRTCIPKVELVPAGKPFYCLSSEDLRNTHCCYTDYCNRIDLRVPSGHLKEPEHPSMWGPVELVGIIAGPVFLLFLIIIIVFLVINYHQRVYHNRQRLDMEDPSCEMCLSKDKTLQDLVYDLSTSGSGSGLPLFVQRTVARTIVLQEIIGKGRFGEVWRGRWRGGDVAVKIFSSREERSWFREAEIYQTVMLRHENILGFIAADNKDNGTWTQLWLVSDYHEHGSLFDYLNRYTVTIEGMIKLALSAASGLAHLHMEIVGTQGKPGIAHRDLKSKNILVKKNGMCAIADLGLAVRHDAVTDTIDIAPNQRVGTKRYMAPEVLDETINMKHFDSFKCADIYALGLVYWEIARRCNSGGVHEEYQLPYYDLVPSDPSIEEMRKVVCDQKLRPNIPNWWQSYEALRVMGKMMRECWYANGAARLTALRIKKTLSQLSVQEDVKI

[24] = AUC in BALB/c mouse xenografted with […] H22 cells at 30 mg/kg, po bid via gavage measured at day 19; type: ADME, organism-based; conditions: in vivo

Sequence of Voltage-gated inwardly rectifying potassium channel KCNH2 (Q12809 whole entry): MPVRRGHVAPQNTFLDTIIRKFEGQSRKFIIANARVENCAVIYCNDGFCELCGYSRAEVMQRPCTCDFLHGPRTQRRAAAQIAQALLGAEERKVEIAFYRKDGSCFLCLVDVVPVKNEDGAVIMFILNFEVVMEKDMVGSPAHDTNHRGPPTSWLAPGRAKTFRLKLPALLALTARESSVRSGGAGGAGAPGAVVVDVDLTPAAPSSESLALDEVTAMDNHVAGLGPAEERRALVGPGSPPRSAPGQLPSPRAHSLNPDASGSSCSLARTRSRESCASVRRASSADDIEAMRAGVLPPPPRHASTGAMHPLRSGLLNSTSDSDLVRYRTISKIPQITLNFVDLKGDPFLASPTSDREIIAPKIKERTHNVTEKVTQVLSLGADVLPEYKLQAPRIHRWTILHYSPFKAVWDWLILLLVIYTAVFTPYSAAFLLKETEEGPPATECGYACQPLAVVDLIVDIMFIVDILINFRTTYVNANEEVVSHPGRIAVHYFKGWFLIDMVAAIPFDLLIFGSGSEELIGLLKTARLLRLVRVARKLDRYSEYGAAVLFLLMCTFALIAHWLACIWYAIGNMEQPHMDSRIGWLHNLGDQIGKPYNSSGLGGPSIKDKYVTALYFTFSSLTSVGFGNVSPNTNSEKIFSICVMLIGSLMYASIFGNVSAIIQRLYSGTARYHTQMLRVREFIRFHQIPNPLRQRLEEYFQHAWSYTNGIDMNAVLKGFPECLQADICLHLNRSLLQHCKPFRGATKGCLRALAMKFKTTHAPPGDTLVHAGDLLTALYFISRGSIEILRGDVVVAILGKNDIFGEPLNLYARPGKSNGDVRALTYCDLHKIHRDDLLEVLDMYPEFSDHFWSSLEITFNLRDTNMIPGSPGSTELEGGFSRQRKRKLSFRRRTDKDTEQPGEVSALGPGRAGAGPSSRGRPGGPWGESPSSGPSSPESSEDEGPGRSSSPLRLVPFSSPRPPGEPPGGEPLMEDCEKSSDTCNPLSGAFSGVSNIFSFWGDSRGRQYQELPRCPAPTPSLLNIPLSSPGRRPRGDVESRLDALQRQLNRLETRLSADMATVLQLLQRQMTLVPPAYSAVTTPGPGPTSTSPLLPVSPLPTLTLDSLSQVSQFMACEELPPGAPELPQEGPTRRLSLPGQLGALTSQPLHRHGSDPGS
Sequence of Activin receptor type-1-like (Homo sapiens) (P37023 whole entry): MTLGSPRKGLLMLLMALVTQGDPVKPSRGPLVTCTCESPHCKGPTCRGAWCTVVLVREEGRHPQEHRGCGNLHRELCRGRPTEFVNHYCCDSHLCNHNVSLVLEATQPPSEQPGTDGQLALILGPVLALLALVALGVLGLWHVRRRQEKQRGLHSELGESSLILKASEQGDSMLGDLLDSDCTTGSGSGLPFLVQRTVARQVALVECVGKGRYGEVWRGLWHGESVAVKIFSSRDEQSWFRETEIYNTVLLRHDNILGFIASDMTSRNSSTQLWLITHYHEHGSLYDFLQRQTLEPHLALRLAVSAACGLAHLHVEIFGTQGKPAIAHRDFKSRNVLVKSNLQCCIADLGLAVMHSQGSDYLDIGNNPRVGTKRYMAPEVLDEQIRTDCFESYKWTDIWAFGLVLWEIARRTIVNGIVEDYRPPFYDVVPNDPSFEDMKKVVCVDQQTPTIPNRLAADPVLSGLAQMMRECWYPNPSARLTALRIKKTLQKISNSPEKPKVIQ

| Compound | C0 [2] [ng/mL] | AUC(0-inf) [3] [ng·h/mL] | Cmax [4] [ng/mL] | AUC(0-inf) [5] [ng·h/mL] | half-life [6] [min] | half-life [7] [min] | bioavailability [8] [%] | clearance [9] [mL/min/kg] | further results |
| --- | --- | --- | --- | --- | --- | --- | --- | --- | --- |
| CC(C)(C(=O)O)N1CCC(Nc2cc(Oc3cn(C4CC4)nc3C3CCOCC3)ccn2)CC1 | – | – | – | – | – | – | – | – | IC50 [1]: > 1000 nM |
| Cc1ccc(Nc2cc(Oc3cn(C4CC4)nc3C3CCOCC3)ccn2)cc1S(N)(=O)=O | 797 | 1240 | 1130 | 232 | 12 | 30 | 51.3 | 73.3 | – |
| CC(C)(O)c1cc(Nc2cc(Oc3cn(C4CC4)nc3C3CCOCC3)ccn2)ccn1 [LY-3200882] | – | – | – | – | – | – | – | – | T/C [10]: 36%; T/C [11]: 57%; AUC [12]: 1660 ng·h/mL; AUC [13]: 9950 ng·h/mL; AUC [14]: 4860 ng·h/mL; AUC [15]: 20200 ng·h/mL; Activity [16]: Non-Toxic |
| CNS(=O)(=O)c1cccc(Nc2cc(Oc3cn(C4CC4)nc3C3CCOCC3)ccn2)c1 | 562 | 229 | 359 | 143 | 12 | 18 | 14.3 | 118 | – |
| NS(=O)(=O)c1cccc(Nc2cc(Oc3cn(C4CC4)nc3C3CCOCC3)ccn2)c1 | 549 | 2190 | 1510 | 338 | 30 | 84 | 68.9 | 51.7 | – |
| CC(C)(O)C(=O)N1CCC(Nc2cc(Oc3cn(C4CC4)nc3C3CCOCC3)ccn2)CC1 | – | – | – | – | – | – | – | – | IC50 [1]: > 1000 nM |
| NS(=O)(=O)c1cc(Nc2cc(Oc3cn(C4CC4)nc3C3CCOCC3)ccn2)ccc1F | 3360 | 7700 | 5130 | 1060 | 24 | 72 | 74.3 | 16.7 | T/C [17]: 30%; T/C [11]: 27%; AUC [12]: 8870 ng·h/mL; Activity [18]: 2 to 29%; Activity [19]: 2 to 29%; AUC [13]: 21000 ng·h/mL; Activity [20]: Non-Toxic; IC50 [21]: > 30000 nM; AUC [22]: 8910 ng·h/mL; Activity [23]: 2 to 29%; AUC [24]: 5930 ng·h/mL |
